Experimental data as given in ChEMBL document CHEMBL1140393, “Neamine dimers targeting the HIV-1 TAR RNA” (Bioorg Med Chem Lett, 2005).

Experiments:
Parameters in all cases: species or system Homo sapiens
[1] = Effect against transactivation responsive RNA-binding protein at pH 7.4 (50 mM Tris-HCl […]) in fluorimetric competition assay
[2] = Effect towards transactivation responsive RNA-binding protein at pH 7.5, (10 mM Tris-HCl, 150 mM KCl)by using fluorimetric competition assay
[3] = Effect against trans-activation responsive RNA-binding protein at pH 7.4 (50 mM Tris-HCl and 20 mM KCl) in fluorimetric competition assay

SMILES	IC50 [1] [nM]	IC50 [2] [nM]	IC50 [3] [nM]
CN(CC(=O)NCCCCCCO[C@@H]1[C@H](O)[C@H](N)C[C@@H](N)[C@H]1O[C@H]1O[C@@H](CN)[C@@H](O)[C@H](O)[C@@H]1N)CC(=O)NCCCCCCO[C@@H]1[C@H](O)[C@H](N)C[C@@H](N)[C@H]1O[C@H]1O[C@@H](CN)[C@@H](O)[C@H](O)[C@@H]1N	150	1000	
CN(CC(=O)NCCCCCCO[C@H]1[C@H](O)[C@H](N)[C@@H](O[C@H]2[C@H](O)[C@H](O)[C@H](N)C[C@H]2N)O[C@H]1CN)CC(=O)NCCCCCCO[C@H]1[C@H](O)[C@H](N)[C@@H](O[C@H]2[C@H](O)[C@H](O)[C@H](N)C[C@H]2N)O[C@H]1CN	330	50	
NCC1OC(OC2C(N)CC(N)C(O)C2O)C(N)C(O)C1OCCCCCCNC(=O)CCC(=O)NCCCCCCOC1C(CN)OC(OC2C(N)CC(N)C(O)C2O)C(N)C1O (configuration not stated)	150	480	
NC[C@H]1O[C@H](O[C@H]2[C@H](O)[C@@H](O)[C@H](N)C[C@@H]2N)[C@H](N)[C@@H](O)[C@@H]1O [NEAMINE]		40000	10000

Further lines, with some results ahead:

IC50 [1] [nM]	IC50 [2] [nM]	SMILES	IC50 [3] [nM]
400	900	NCC1OC(OC2C(N)CC(N)C(O)C2OCCCCCCNC(=O)CCC(=O)NCCCCCCOC2C(O)C(N)CC(N)C2OC2OC(CN)C(O)C(O)C2N)C(N)C(O)C1O (configuration not stated)	
7000	35000	NC[C@@H]1O[C@H](O[C@H]2[C@@H](O)[C@H](O[C@@H]3[C@@H](O)[C@H](N)C[C@H](N)[C@H]3O[C@H]3O[C@H](CN)[C@@H](O)[C@H](O)[C@H]3N)O[C@@H]2CO)[C@H](N)[C@@H](O)[C@@H]1O [FRAMYCETIN]	
